Experimental data reported in patent US20250214977A1, “STAT6 INHIBITORS AND USES THEREOF” (Kymera Therapeutics, Inc., priority 2024, published 2025).
Where two headings read alike, the source gives them in different places.

Key:
[1] = tested on: Phosphorylation of STAT6 in human PBMC (CD19+ B cells); experiment: Phosphorylated STAT6 (pSTAT6) flow cytometry assay in human PBMC, IL-4 stimulated; format: cell-based; details: compound 1 hour, 1 ng/ml IL-4 for 15 minutes, read-out: STAT6 IL4 pSTAT6 assay in PBMC: Average IC50
Method: Example 2. Phosphorylated STAT6 (pSTAT6) Flow Cytometry Assay in Human PBMC
Phosphorylation of STAT6 in human PBMC was quantitatively measured using flow cytometry technology. Human PBMC were seeded in 96-well plates with a density of 0.3 to 0.5 million cells per well in 100 μl fresh media. Compounds were then added to the assay plates with a final top concentration of up to 30 μM in a 1:3 dilution series with total of 9 doses. The assay plates were incubated for 1 hour at 37° C. under 5% CO2. The cells were then stimulated with 1 ng/ml of IL-4 (R&D Systems, Cat #6507-IL) for 15 minutes, followed by fixation for 30 minutes at 4° C. Cells were spun down at 350 g for 5 minutes. The supernatant was removed and cells were washed once with FACS buffer. Cells were permeabilized with 90% MeOH/H2O for 30 minutes at 4° C., followed by one wash with FACS buffer. Non-specific binding were blocked with human Fc for 1 hour at 4 C, followed by one wash with FACS buffer. AF488 conjugated pSTAT6 antibody (BD Biosciences, Cat #612600, 1:100 dilution) and PE conjugated CD19 antibody (BD Biosciences, Cat #341103, 1:50 dilution) diluted in 100 μl FACS buffer was added to each well with overnight incubation at 4° C. Cells were then washed once with FACS buffer and resuspended in 200 μl of FACS buffer for flow cytometry to quantify pSTAT6 in CD19+ B cells. The data was analyzed by GraphPad Prism and the dose dependent pSTAT6 inhibition was fit using the four-parameter inhibitor vs. response nonlinear regression.

[2] = tested on: Phosphorylation of STAT6 in human A549 cells; experiment: Phosphorylated STAT6 (pSTAT6) flow cytometry assay in human A549 cells; format: cell-based
Description: Example 3. Phosphorylated STAT6 (pSTAT6) Flow Cytometry Assay in Human A549 Cells
Phosphorylation of STAT6 in human A549 cells was quantitatively measured using flow cytometry technology.

[3] = read-out: STAT6 IL4 pSTAT6 assay in A549 cells: Average IC50

Row | Molecule | IC50 [1] [µM] | IC50 [2, 3] [µM] | further results
1 | COC(=O)C1CCC(c2ccc3oc(C(=O)N(C)C)cc3c2)CN1C(=O)CCn1ccnn1 (mixture of isomers) [Example I-1] | > 100 |  | 
2 | COC(=O)C1CCC(c2ccc3oc(C(=O)N(C)C)cc3c2)CN1C(=O)CCn1ccnn1 (mixture of isomers) [Example I-2] | > 100 |  | 
3 | C[C@H]1CCCCN1C(=O)c1cc2ccc(C3=CCCN(C(=O)CCn4ccnn4)C3)cc2[nH]1 (single isomer, unassigned) [Example I-129] | > 100 |  | 
4 | C[C@@H]1CCCCN1C(=O)c1cc2ccc(C3=CCCN(C(=O)CCn4ccnn4)C3)cc2[nH]1 (single isomer, unassigned) [Example I-130] | > 100 |  | 
5 | COC(=O)[C@H]1CC[C@@H](c2ccc3oc(C(=O)N(C)C)cc3c2)CN1C(=O)CCn1ccnn1 (single isomer, unassigned) [Example I-151] | > 100 |  | 
6 | COC(=O)[C@H]1CC[C@H](c2ccc3oc(C(=O)N(C)C)cc3c2)CN1C(=O)CCn1ccnn1 (single isomer, unassigned) [Example I-152] | > 100 |  | 
7 | CN(C)C(=O)c1cc2cc([C@@H]3CC[C@H](CO)N(C(=O)CCn4ccnn4)C3)ccc2o1 (single isomer, unassigned) [Example I-156] | > 100 |  | 
8 | CN(C)C(=O)c1cc2cc([C@H]3CC[C@H](CO)N(C(=O)CCn4ccnn4)C3)ccc2o1 (single isomer, unassigned) [Example I-157] | > 100 |  | 
9 | CN(C)C(=O)c1cc2cc(C3=CCCN(C(=O)[C@@H](N)Cn4ccnn4)C3)ccc2o1 (single isomer, unassigned) [Example I-173] | > 100 |  | 
10 | CN(C)C(=O)c1cc2cc(C3=CCCN(C(=O)[C@H](N)Cn4ccnn4)C3)ccc2o1 (single isomer, unassigned) [Example I-174] | > 100 |  | 
11 | CC(=O)N1CCc2ccccc2[C@H]1C(=O)N1CCC=C(c2ccc3oc(C(=O)N(C)C)cc3c2)C1 (single isomer, unassigned) [Example I-176] | > 100 |  | 
12 | CC(=O)N1CCc2ccccc2[C@@H]1C(=O)N1CCC=C(c2ccc3oc(C(=O)N(C)C)cc3c2)C1 (single isomer, unassigned) [Example I-177] | > 100 |  | 
13 | CN(C)C(=O)c1cc2cc([C@@H]3CN(C(=O)CCn4ccnn4)CC[C@H]3O)ccc2o1 (single isomer, unassigned) [Example I-209] | > 100 |  | 
14 | CN(C)C(=O)c1cc2cc([C@H]3CN(C(=O)CCn4ccnn4)CC[C@@H]3O)ccc2o1 (single isomer, unassigned) [Example I-210] | > 100 |  | 
15 | C[C@H](Cn1ccnn1)C(=O)N1CCC=C(c2ccc3oc(C(=O)N(C)C)cc3c2)C1 (single isomer, unassigned) [Example I-228] | 10 to 100 |  | 
16 | C[C@@H](Cn1ccnn1)C(=O)N1CCC=C(c2ccc3oc(C(=O)N(C)C)cc3c2)C1 (single isomer, unassigned) [Example I-229] | > 100 |  | 
17 | CNC1(C(=O)N2CCC=C(c3ccc4oc(C(=O)N(C)C)cc4c3)C2)CCc2ccccc2C1 (stereo not shown) [Example I-5] | 10 to 100 |  | 

Row | Molecule | IC50 [1] [µM] | IC50 [2, 3] [µM] | further results
18 | CN(C)C(=O)c1cc2cc(C3=CCCN(C(=O)C4Cc5c(N)cccc5CN4C=O)C3)ccc2o1 (stereo not shown) [Example I-8] | 0.1 to 1 |  | 
19 | COc1ccccc1-c1cc(C2=CCCN(C(=O)CCn3ccnn3)C2)c(F)c2[nH]c(C(=O)N3CCN(Cc4cccn(C)c4=O)CC3)cc12 [Example I-1198] |  | < 0.1 | 
20 | COc1ccccc1-c1cc(C2=CCCN(C(=O)CCn3ccnn3)C2)c(F)c2[nH]c(C(=O)N3CCN(CC(=O)NC(C)C)CC3)cc12 [Example I-1200] |  | < 0.1 | 
21 | COc1ccccc1-c1cc(C2=CCCN(C(=O)CCn3ccnn3)C2)c(F)c2[nH]c(C(=O)N3CCN(Cc4noc(C)n4)CC3)cc12 [Example I-1201] |  | < 0.1 | 
22 | COc1ccccc1-c1cc(C2=CCCN(C(=O)CCn3ccnn3)C2)c(F)c2[nH]c(C(=O)N3CCN(Cc4ccccc4)CC3)cc12 [Example I-1202] |  | < 0.1 | 
23 | COc1ccncc1-c1cc(C(=O)N2CCN(c3ncc(F)cc3OC)CC2)cc2cc(C3CCCN(C(=O)CCn4ccnn4)C3)[nH]c12 (stereo not shown) [Example I-1203] |  | 1 to 10 | 
24 | COc1cc(F)cnc1N1CCN(C(=O)c2cc(-c3cccnc3C3CC3)c3[nH]c(C4CCCN(C(=O)CCn5ccnn5)C4)cc3c2)CC1 (stereo not shown) [Example I-1204] |  | 1 to 10 | 
25 | CCc1ccncc1-c1cc(C2=CCCC(C(=O)O)C2)c(F)c2[nH]c(C(=O)N3CCN(c4ncc(F)cc4OC)CC3)cc12 (stereo not shown) [Example I-1205] |  | 1 to 10 | 
26 | CCC1CN(C)CC1c1cc(C2=CCCN(C(=O)CCn3ccnn3)C2)c(F)c2[nH]c(C(=O)N3CCN(c4ncc(F)cc4OC)CC3)cc12 (stereo not shown) [Example I-1208, 1-[5-[4-(4-ethyl-1-methyl-pyrrolidin-3-yl)-7-fluoro-2-[4-(5-fluoro-3-methoxy-2-pyridyl)piperazine-1-carbonyl]-1H-indol-6-yl]-3,6-dihydro-2H-pyridin-1-yl]-3-(triazol-1-yl)propan-1-one] |  |  | IC50 ([2]; listed as I-393, read-out: STAT6 IL4 pSTAT6 assay in A549 cells: Average IC50): < 0.1 µM
27 | CCC1CN(C)CC1c1cc(C2=CCCN(C(=O)CCn3ccnn3)C2)c(F)c2[nH]c(C(=O)N3CCN(c4ncc(F)cc4OC)CC3)cc12 (stereo not shown) [Example I-1209, 1-[5-[4-(4-ethyl-1-methyl-pyrrolidin-3-yl)-7-fluoro-2-[4-(5-fluoro-3-methoxy-2-pyridyl)piperazine-1-carbonyl]-1H-indol-6-yl]-3,6-dihydro-2H-pyridin-1-yl]-3-(triazol-1-yl)propan-1-one] |  |  | IC50 ([2]; listed as I-394, read-out: STAT6 IL4 pSTAT6 assay in A549 cells: Average IC50): > 100 µM
28 | (1R)-3-[4-(4-ethyl-3-pyridyl)-7-fluoro-2-[4-(5-fluoro-3-methoxy-2-pyridyl)piperazine-1-carbonyl]-1H-indol-6-yl]cyclohex-3-ene-1-carboxylic acid [Example I-810] |  | < 0.1 | 
29 | (1S)-3-[4-(4-ethyl-3-pyridyl)-7-fluoro-2-[4-(5-fluoro-3-methoxy-2-pyridyl)piperazine-1-carbonyl]-1H-indol-6-yl]cyclohex-3-ene-1-carboxylic acid [Example I-809] |  | < 0.1 | 
30 | (R)-1-(3-(7-fluoro-2-(4-(5-fluoro-3-methoxypyridin-2-yl)piperazine-1-carbonyl)-4-(1-methylpyrrolidin-3-yl)-1H-indol-6-yl)-5,6-dihydropyridin-1(2H)-yl)-3-(1H-1,2,3-triazol-1-yl)propan-1-one [Example I-812] |  | < 0.1 | 
31 | (R)-5-(1-(2-formyl-1,2,3,4-tetrahydroisoquinoline-3-carbonyl)-1,2,5,6-tetrahydropyridin-3-yl)-7-(2-methoxyphenyl)-N,N-dimethylbenzofuran-2-carboxamide [Example I-804] |  | > 100 | 
32 | (S)-1-(5-(7-fluoro-2-(4-(5-fluoro-3-methoxypyridin-2-yl)piperazine-1-carbonyl)-4-(1-methylpyrrolidin-3-yl)-1H-indol-6-yl)-3,6-dihydropyridin-1(2H)-yl)-3-(1H-1,2,3-triazol-1-yl)propan-1-one [Example I-811] |  | < 0.1 | 
33 | (S)-5-(1-(2-formyl-1,2,3,4-tetrahydroisoquinoline-3-carbonyl)-1,2,5,6-tetrahydropyridin-3-yl)-7-(2-methoxyphenyl)-N,N-dimethylbenzofuran-2-carboxamide [Example I-805] |  | > 100 | 
34 | Methyl 5-(3-(5-(2-(dimethylcarbamoyl)benzofuran-5-yl)-1,2,3,6-tetrahydropyridine-1-carbonyl)-2-formyl-1,2,3,4-tetrahydroisoquinolin-5-yl)pent-4-ynoate [Example I-802] |  | < 0.1 | 
